ChEMBL document CHEMBL1132500, “Structure and antimalarial activity of adducts of 11-azaartemisinin with conjugated terminal acetylenes” (Bioorg Med Chem Lett, 1999)
In brackets after ≈: the same amount, converted by molar mass.

Legend:
Plasmodium falciparum [1] = assay: Antimalarial activity against Plasmodium falciparum D6 as IC50 relative to artemisinin; format: functional
Plasmodium falciparum [2] = assay: Antimalarial activity against Plasmodium falciparum W2 clone as relative IC50 to artemisinin; format: functional
Plasmodium falciparum [3] = assay: Inhibitory activity against Plasmodium falciparum W2; format: functional, organism-based
Plasmodium falciparum [4] = assay: Inhibitory activity against Plasmodium falciparum D6; format: functional, organism-based

Row | SMILES | IC50 ratio (Plasmodium falciparum [1]) | IC50 ratio (Plasmodium falciparum [2]) | IC50 (Plasmodium falciparum [3]) [ng/mL] | IC50 (Plasmodium falciparum [4]) [ng/mL]
1 | CC(=O)/C=C/N1C(=O)[C@H](C)[C@@H]2CC[C@@H](C)[C@@H]3CC[C@]4(C)OO[C@]32[C@H]1O4 | 2.54 | 1.25 |  | 
2 | COC(=O)/C=C/N1C(=O)[C@H](C)[C@@H]2CC[C@@H](C)[C@@H]3CC[C@]4(C)OO[C@]32[C@H]1O4 | 2 | 1.2 |  | 
3 | C[C@@H]1CC[C@H]2[C@@H](C)C(=O)N(/C=C/C(=O)N(C)C)[C@@H]3O[C@]4(C)CC[C@@H]1[C@@]23OO4 | 0.39 | 0.35 |  | 
4 | C[C@@H]1CC[C@H]2[C@@H](C)C(=O)O[C@@H]3O[C@@]4(C)CC[C@@H]1[C@]32OO4 [ARTEMISININ] |  |  | 1.15 (≈ 4.07 nM) | 4.19 (≈ 14.8 nM)
